Reference: ChEMBL document CHEMBL5131481, “Topoisomerase IIα inhibitory and antiproliferative activity of dihydroxylated 2,6-diphenyl-4-fluorophenylpyridines: Design, synthesis, and structure-activity relationships” (Bioorg Med Chem Lett, 2022)
Structures can show the parent of a compound that is named as a salt.

Columns and labels:
[1] = system: T47D; assay: Antiproliferative activity against human T47D cells assessed as inhibition of cell proliferation; format: functional, cell-based
[2] = target: DNA topoisomerase 2-alpha (Homo sapiens) (UniProt P11388); assay: Inhibition of topoisomerase 2alpha (unknown origin) assessed as relaxation of supercoiled plasmid pBR322 DNA at 100 uM relative to control
[3] = system: HCT-15; assay: Antiproliferative activity against human HCT-15 cells assessed as inhibition of cell proliferation; format: functional, cell-based
[4] = system: HeLa; assay: Antiproliferative activity against human HeLa cells assessed as inhibition of cell proliferation; format: functional, cell-based
[5] = system: DU-145; assay: Antiproliferative activity against human DU-145 cells assessed as inhibition of cell proliferation; format: functional, cell-based

DNA topoisomerase 2-alpha (Homo sapiens), sequence (P11388 whole entry): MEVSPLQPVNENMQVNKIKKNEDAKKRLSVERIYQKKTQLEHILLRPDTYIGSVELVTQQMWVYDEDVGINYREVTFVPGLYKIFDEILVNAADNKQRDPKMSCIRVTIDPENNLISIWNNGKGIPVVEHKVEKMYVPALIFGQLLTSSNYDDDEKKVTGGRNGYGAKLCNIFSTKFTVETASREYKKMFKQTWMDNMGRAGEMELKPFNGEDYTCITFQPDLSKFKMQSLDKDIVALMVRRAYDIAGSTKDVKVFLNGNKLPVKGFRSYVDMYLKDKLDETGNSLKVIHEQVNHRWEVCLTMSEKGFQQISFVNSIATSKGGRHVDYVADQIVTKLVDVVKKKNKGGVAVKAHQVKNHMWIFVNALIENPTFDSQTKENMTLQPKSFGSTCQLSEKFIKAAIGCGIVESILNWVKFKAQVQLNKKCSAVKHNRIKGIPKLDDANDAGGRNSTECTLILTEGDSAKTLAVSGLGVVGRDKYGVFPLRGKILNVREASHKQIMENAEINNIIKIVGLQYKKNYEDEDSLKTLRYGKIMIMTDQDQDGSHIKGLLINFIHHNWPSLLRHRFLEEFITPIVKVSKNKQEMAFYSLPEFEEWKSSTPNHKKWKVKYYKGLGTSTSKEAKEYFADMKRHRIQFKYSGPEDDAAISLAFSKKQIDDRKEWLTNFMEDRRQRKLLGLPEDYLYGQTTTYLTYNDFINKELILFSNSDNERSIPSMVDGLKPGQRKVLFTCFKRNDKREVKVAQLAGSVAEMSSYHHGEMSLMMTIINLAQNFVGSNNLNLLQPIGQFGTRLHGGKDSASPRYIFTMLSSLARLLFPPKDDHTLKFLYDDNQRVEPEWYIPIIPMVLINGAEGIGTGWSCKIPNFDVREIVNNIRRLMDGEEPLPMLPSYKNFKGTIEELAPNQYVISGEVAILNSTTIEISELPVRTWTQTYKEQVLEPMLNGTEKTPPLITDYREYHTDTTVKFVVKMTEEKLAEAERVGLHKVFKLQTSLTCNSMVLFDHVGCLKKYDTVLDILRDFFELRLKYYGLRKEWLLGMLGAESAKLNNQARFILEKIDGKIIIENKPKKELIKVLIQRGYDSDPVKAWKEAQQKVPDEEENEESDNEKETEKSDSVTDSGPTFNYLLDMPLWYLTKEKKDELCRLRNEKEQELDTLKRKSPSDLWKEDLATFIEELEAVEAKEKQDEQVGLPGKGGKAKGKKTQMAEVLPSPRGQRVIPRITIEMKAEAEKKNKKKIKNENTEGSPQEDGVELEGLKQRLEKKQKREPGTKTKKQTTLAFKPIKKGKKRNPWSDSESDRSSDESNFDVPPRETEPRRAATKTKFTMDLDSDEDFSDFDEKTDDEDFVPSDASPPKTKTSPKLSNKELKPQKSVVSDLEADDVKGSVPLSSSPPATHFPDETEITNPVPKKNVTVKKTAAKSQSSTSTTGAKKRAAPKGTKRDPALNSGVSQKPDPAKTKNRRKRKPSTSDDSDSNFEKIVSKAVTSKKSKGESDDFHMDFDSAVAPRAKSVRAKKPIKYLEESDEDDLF

Compound | IC50 [1] [µM] | inhibition [2] [%] | IC50 [3] [µM] | IC50 [4] [µM] | IC50 [5] [µM]
Oc1ccc(-c2cc(-c3cccc(F)c3)cc(-c3ccccc3O)n2)cc1 | > 50 | 16.3 | > 50 | > 50 | > 50
Oc1ccc(-c2cc(-c3ccccc3C(F)(F)F)cc(-c3ccccc3O)n2)cc1 | 7.18 | 0 | 8.99 | 16.5 | 6.69
COc1cccc2c1C(=O)c1c(O)c3c(c(O)c1C2=O)C[C@@](O)(C(=O)CO)C[C@@H]3O[C@H]1C[C@H](N)[C@H](O)[C@H](C)O1 [DOXORUBICIN HYDROCHLORIDE] | 4.59 | – | 1.28 | 5.04 | 5.85
Oc1cccc(-c2cc(-c3cccc(F)c3)cc(-c3ccccc3O)n2)c1 | > 50 | 8.8 | > 50 | > 50 | > 50
Oc1cccc(-c2cc(-c3ccccc3C(F)(F)F)cc(-c3ccccc3O)n2)c1 | 5.68 | 2.6 | 9.01 | 16.8 | 7.25
Oc1ccccc1-c1cc(-c2ccc(F)cc2)cc(-c2ccccc2O)n1 | > 50 | 7.2 | > 50 | > 50 | > 50
Oc1ccc(-c2cc(-c3ccc(C(F)(F)F)cc3)cc(-c3ccccc3O)n2)cc1 | > 50 | 0.1 | > 50 | > 50 | > 50
Oc1ccc(-c2cc(-c3cccc(F)c3)cc(-c3ccc(O)cc3)n2)cc1 | > 50 | 0 | > 50 | > 50 | 9.29
Oc1ccccc1-c1cc(-c2cccc(C(F)(F)F)c2)cc(-c2ccccc2O)n1 | > 50 | 1.2 | > 50 | > 50 | > 50
Oc1ccccc1-c1cc(-c2ccccc2OC(F)(F)F)cc(-c2ccccc2O)n1 | 1.73 | 12.5 | 4.52 | 9.75 | 5.85
Oc1ccccc1-c1cc(-c2ccccc2F)cc(-c2ccccc2O)n1 | > 50 | 10.3 | > 50 | > 50 | > 50
Oc1ccc(-c2cc(-c3ccccc3OC(F)(F)F)cc(-c3ccccc3O)n2)cc1 | 2.05 | 0 | 9.82 | 6.01 | 4.19
Oc1ccc(-c2cc(-c3ccc(F)cc3)cc(-c3ccccc3O)n2)cc1 | > 50 | 0 | > 50 | > 50 | > 50
Oc1cccc(-c2cc(-c3ccccc3F)cc(-c3ccccc3O)n2)c1 | 24.2 | 1 | 8.47 | 31.1 | 35.6
Oc1ccccc1-c1cc(-c2ccccc2C(F)(F)F)cc(-c2ccccc2O)n1 | 22.5 | 0 | 3.97 | 5.8 | 4.77
Oc1ccccc1-c1cc(-c2cccc(F)c2)cc(-c2ccccc2O)n1 | > 50 | 0 | > 50 | > 50 | > 50
Oc1ccccc1-c1cc(-c2cccc(OC(F)(F)F)c2)cc(-c2ccccc2O)n1 | > 50 | 14.8 | > 50 | > 50 | 7.47
Oc1ccccc1-c1cc(-c2ccc(C(F)(F)F)cc2)cc(-c2ccccc2O)n1 | > 50 | 0 | > 50 | > 50 | > 50

More lines, now with the values ahead:

IC50 [1] [µM] | inhibition [2] [%] | IC50 [3] [µM] | IC50 [4] [µM] | IC50 [5] [µM] | Compound
2.33 | 24 | > 50 | > 50 | 33.5 | Oc1cccc(-c2cc(-c3ccc(C(F)(F)F)cc3)cc(-c3cccc(O)c3)n2)c1
6.74 | 5.7 | > 50 | > 50 | > 50 | Oc1cccc(-c2cc(-c3cccc(OC(F)(F)F)c3)cc(-c3cccc(O)c3)n2)c1
4.97 | 25.2 | 13.6 | 12.7 | > 50 | Oc1cccc(-c2cc(-c3cccc(C(F)(F)F)c3)cc(-c3cccc(O)c3)n2)c1
6.34 | 0.6 | 6.46 | 19.5 | 13 | Oc1cccc(-c2cc(-c3cccc(C(F)(F)F)c3)cc(-c3ccccc3O)n2)c1
21.3 | 4.9 | 7.86 | 1.4 | 23.8 | Oc1cccc(-c2cc(-c3cccc(F)c3)cc(-c3cccc(O)c3)n2)c1
2.68 | 0 | 3.24 | 15.2 | > 50 | Oc1cccc(-c2cc(-c3ccccc3OC(F)(F)F)cc(-c3ccccc3O)n2)c1
2.63 | 28 | 9.54 | 16.2 | 11.1 | Oc1ccc(-c2cc(-c3cccc(C(F)(F)F)c3)cc(-c3cccc(O)c3)n2)cc1
18.9 | 4.4 | 1.38 | 27.8 | 18.1 | Oc1ccc(-c2cc(-c3ccc(OC(F)(F)F)cc3)cc(-c3cccc(O)c3)n2)cc1
> 50 | 0 | > 50 | > 50 | 20.3 | Oc1ccccc1-c1cc(-c2ccc(OC(F)(F)F)cc2)cc(-c2ccccc2O)n1
> 50 | 0.2 | > 50 | > 50 | > 50 | Oc1cccc(-c2cc(-c3ccc(C(F)(F)F)cc3)cc(-c3ccccc3O)n2)c1
5.39 | 0 | 2.74 | 14.9 | > 50 | Oc1cccc(-c2cc(-c3cccc(OC(F)(F)F)c3)cc(-c3ccccc3O)n2)c1
7.71 | 0 | 9.41 | 20.6 | 21.1 | Oc1cccc(-c2cc(-c3ccc(OC(F)(F)F)cc3)cc(-c3ccccc3O)n2)c1
> 50 | 0 | > 50 | > 50 | > 50 | Oc1ccc(-c2cc(-c3cccc(C(F)(F)F)c3)cc(-c3ccc(O)cc3)n2)cc1
> 50 | 0 | > 50 | > 50 | > 50 | Oc1ccc(-c2cc(-c3ccc(OC(F)(F)F)cc3)cc(-c3ccccc3O)n2)cc1
> 50 | 4.4 | > 50 | > 50 | > 50 | Oc1ccc(-c2cc(-c3cccc(OC(F)(F)F)c3)cc(-c3ccc(O)cc3)n2)cc1
9.82 | 6 | > 50 | 18.7 | > 50 | Oc1cccc(-c2cc(-c3ccc(OC(F)(F)F)cc3)cc(-c3cccc(O)c3)n2)c1
> 50 | 0 | > 50 | > 50 | > 50 | Oc1ccc(-c2cc(-c3cccc(OC(F)(F)F)c3)cc(-c3ccccc3O)n2)cc1
4.35 | 34 | 8.15 | 15.2 | 2.87 | Oc1cccc(-c2cc(-c3ccccc3C(F)(F)F)cc(-c3cccc(O)c3)n2)c1
